Data from PubChem BioAssay (NCI).
Several values for one entry are separate records, joined by “and”; a condition that tells them apart may be missing. Identical values can stand only once.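 Assay format: 96-well plates, 48-hour exposure. Abbreviation: GI50, concentration required for 50% inhibition of growth. TGI: concentration producing complete growth inhibition.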

Tests used:
Test in all cases: NCI tumour cell line growth inhibition, 48 h
M14 melanoma = test system: M14 melanoma
MALME-3M melanoma = test system: MALME-3M melanoma
SNB-75 CNS = test system: SNB-75 CNS
LOX IMVI melanoma = test system: LOX IMVI melanoma
UO-31 renal = test system: UO-31 renal
HCT-15 colon = test system: HCT-15 colon
RPMI-8226 leukemia = test system: RPMI-8226 leukemia
HCC-2998 colon = test system: HCC-2998 colon
SK-OV-3 ovarian = test system: SK-OV-3 ovarian
OVCAR-8 ovarian = test system: OVCAR-8 ovarian
NCI/ADR-RES ovarian = test system: NCI/ADR-RES ovarian
EKVX NSCLC = test system: EKVX NSCLC
NCI-H23 lung = test system: NCI-H23 lung
IGROV1 ovarian = test system: IGROV1 ovarian
A498 renal = test system: A498 renal
ACHN renal = test system: ACHN renal
COLO 205 colon = test system: COLO 205 colon
SF-268 CNS = test system: SF-268 CNS
TK-10 renal = test system: TK-10 renal
HCT-116 colon = test system: HCT-116 colon
RXF 393 renal = test system: RXF 393 renal
A549 NSCLC = test system: A549 NSCLC
SF-295 CNS = test system: SF-295 CNS
SR leukemia = test system: SR leukemia
KM12 colon = test system: KM12 colon
OVCAR-4 ovarian = test system: OVCAR-4 ovarian
U251 CNS = test system: U251 CNS
HT29 colon = test system: HT29 colon
DU-145 prostate = test system: DU-145 prostate
MCF7 breast = test system: MCF7 breast
SK-MEL-5 melanoma = test system: SK-MEL-5 melanoma
SN12C renal = test system: SN12C renal
HS 578T breast = test system: HS 578T breast
OVCAR-5 ovarian = test system: OVCAR-5 ovarian
CAKI-1 renal = test system: CAKI-1 renal
BT-549 breast = test system: BT-549 breast
K-562 leukemia = test system: K-562 leukemia
HOP-62 NSCLC = test system: HOP-62 NSCLC
SW-620 colon = test system: SW-620 colon
HL-60(TB) leukemia = test system: HL-60(TB) leukemia
SNB-19 CNS = test system: SNB-19 CNS
NCI-H460 lung = test system: NCI-H460 lung
PC-3 prostate = test system: PC-3 prostate
HOP-92 NSCLC = test system: HOP-92 NSCLC
NCI-H226 lung = test system: NCI-H226 lung
CCRF-CEM leukemia = test system: CCRF-CEM leukemia
SK-MEL-28 melanoma = test system: SK-MEL-28 melanoma
SF-539 CNS = test system: SF-539 CNS
T-47D breast = test system: T-47D breast
MDA-MB-231 breast = test system: MDA-MB-231 breast
OVCAR-3 ovarian = test system: OVCAR-3 ovarian
MOLT-4 leukemia = test system: MOLT-4 leukemia
UACC-62 melanoma = test system: UACC-62 melanoma
786-0 renal = test system: 786-0 renal
NCI-H522 lung = test system: NCI-H522 lung
MDA-MB-435 = test system: MDA-MB-435
UACC-257 melanoma = test system: UACC-257 melanoma
SK-MEL-2 melanoma = test system: SK-MEL-2 melanoma

## COc1ccc2c(c1)NC(=O)CN2c1nc(NC2CC2)nc2ccccc12
M14 melanoma
  GI50: 0.000367 µM
  TGI: > 100 µM
MALME-3M melanoma
  GI50: 2.01 µM
  TGI: 84.7 µM
SNB-75 CNS
  GI50: 0.00199 µM
  TGI: 18.7 µM
LOX IMVI melanoma
  GI50: 0.000901 µM
  TGI: 55.5 µM
UO-31 renal
  GI50: 0.031 µM
  TGI: 10.2 µM
HCT-15 colon
  GI50: 0.000556 µM
  TGI: > 100 µM
RPMI-8226 leukemia
  GI50: 0.00182 µM
  TGI: 16.4 µM
HCC-2998 colon
  GI50: 0.00106 µM
  TGI: 1.42 µM
SK-OV-3 ovarian
  GI50: 0.00182 µM
OVCAR-8 ovarian
  GI50: 0.00234 µM
  TGI: 46.9 µM
NCI/ADR-RES ovarian
  GI50: 0.000651 µM
  TGI: 0.00677 µM
EKVX NSCLC
  TGI: 77.5 µM
NCI-H23 lung
  GI50: 0.00112 µM
  TGI: 16.2 µM
IGROV1 ovarian
  TGI: 6.43 µM
A498 renal
  GI50: 0.00185 µM
ACHN renal
  TGI: > 100 µM
COLO 205 colon
  GI50: 0.000395 µM
  TGI: 0.00241 µM
SF-268 CNS
  GI50: 0.00204 µM
  TGI: 14.4 µM
TK-10 renal
  TGI: 14.9 µM
HCT-116 colon
  GI50: 0.000424 µM
  TGI: 13.3 µM
RXF 393 renal
  GI50: 0.00178 µM
A549 NSCLC
  GI50: 0.00128 µM
  TGI: > 100 µM
SF-295 CNS
  GI50: 0.00211 µM
  TGI: 0.00611 µM and 0.0191 µM
SR leukemia
  GI50: 0.000274 µM
KM12 colon
  GI50: 0.000396 µM
  TGI: > 100 µM
OVCAR-4 ovarian
  TGI: > 100 µM
U251 CNS
  GI50: 0.00106 µM
  TGI: 18.4 µM
HT29 colon
  GI50: 0.000347 µM
DU-145 prostate
  GI50: 0.000452 µM
  TGI: 2.83 µM
MCF7 breast
  GI50: 0.000386 µM
  TGI: 14.7 µM
SK-MEL-5 melanoma
  GI50: 0.000552 µM
SN12C renal
  GI50: 0.00491 µM
  TGI: > 100 µM
HS 578T breast
  GI50: 0.00359 µM
  TGI: 25 µM
OVCAR-5 ovarian
  TGI: > 100 µM
CAKI-1 renal
  TGI: 17.9 µM
BT-549 breast
  GI50: 0.00423 µM
  TGI: 3.11 µM
K-562 leukemia
  GI50: 0.000336 µM
  TGI: > 100 µM
HOP-62 NSCLC
  GI50: 0.00433 µM
  TGI: 10.5 µM
SW-620 colon
  GI50: 0.000383 µM
  TGI: > 100 µM
HL-60(TB) leukemia
  GI50: 0.000503 µM
  TGI: 0.00313 µM
SNB-19 CNS
  GI50: 0.00154 µM
  TGI: 24.5 µM
NCI-H460 lung
  GI50: 0.000405 µM
  TGI: > 100 µM
PC-3 prostate
  GI50: 0.000563 µM
  TGI: > 100 µM
HOP-92 NSCLC
  GI50: 2.66 µM
  TGI: 17.5 µM
NCI-H226 lung
  TGI: > 100 µM
CCRF-CEM leukemia
  GI50: 0.000385 µM
  TGI: > 100 µM
SK-MEL-28 melanoma
  GI50: 0.847 µM
  TGI: > 100 µM
SF-539 CNS
  GI50: 0.00232 µM
  TGI: 0.00804 µM
T-47D breast
  GI50: 0.23 µM
  TGI: 7.13 µM
MDA-MB-231 breast
  GI50: 0.000858 µM
  TGI: > 100 µM
OVCAR-3 ovarian
  GI50: 0.000368 µM
  TGI: 0.011 µM
MOLT-4 leukemia
  GI50: 0.00255 µM
  TGI: > 100 µM
UACC-62 melanoma
  GI50: 0.000876 µM
  TGI: 13.2 µM
786-0 renal
  GI50: 0.00905 µM
  TGI: 18.6 µM

## c1ccc(C(NC2CCCCC2NCCNC2CCCCC2NC(c2ccccc2)(c2ccccc2)c2ccccc2)(c2ccccc2)c2ccccc2)cc1 (stereo not drawn)
LOX IMVI melanoma
  TGI: 47.7 µM
UO-31 renal
  TGI: 71.2 µM
HCT-15 colon
  TGI: > 100 µM
RPMI-8226 leukemia
  TGI: > 100 µM
SK-OV-3 ovarian
  TGI: > 100 µM
OVCAR-8 ovarian
  TGI: > 100 µM
NCI-H522 lung
  TGI: 39.5 µM
MDA-MB-435
  TGI: 32.7 µM
EKVX NSCLC
  TGI: > 100 µM
NCI-H23 lung
  TGI: > 100 µM
IGROV1 ovarian
  TGI: > 100 µM
A498 renal
  TGI: 65.5 µM
ACHN renal
  TGI: > 100 µM
COLO 205 colon
  TGI: > 100 µM
SF-268 CNS
  TGI: > 100 µM
TK-10 renal
  TGI: > 100 µM
HCT-116 colon
  TGI: 53.6 µM
A549 NSCLC
  TGI: > 100 µM
SF-295 CNS
  TGI: > 100 µM
SR leukemia
  TGI: > 100 µM
KM12 colon
  TGI: > 100 µM
OVCAR-4 ovarian
  TGI: > 100 µM
U251 CNS
  TGI: 33.9 µM
HT29 colon
  TGI: > 100 µM
DU-145 prostate
  TGI: > 100 µM
MCF7 breast
  TGI: 42.1 µM
SK-MEL-5 melanoma
  TGI: > 100 µM
SN12C renal
  TGI: > 100 µM
HS 578T breast
  TGI: 45.3 µM
OVCAR-5 ovarian
  TGI: > 100 µM
CAKI-1 renal
  TGI: > 100 µM
BT-549 breast
  TGI: 54.1 µM
K-562 leukemia
  TGI: > 100 µM
HOP-62 NSCLC
  TGI: > 100 µM
UACC-257 melanoma
  TGI: > 100 µM
SW-620 colon
  TGI: > 100 µM
SK-MEL-2 melanoma
  TGI: > 100 µM
SNB-19 CNS
  TGI: > 100 µM
NCI-H460 lung
  TGI: > 100 µM
PC-3 prostate
  TGI: > 100 µM
HOP-92 NSCLC
  TGI: 33.7 µM
CCRF-CEM leukemia
  TGI: > 100 µM
SK-MEL-28 melanoma
  TGI: > 100 µM
SF-539 CNS
  TGI: > 100 µM
T-47D breast
  TGI: > 100 µM
MDA-MB-231 breast
  TGI: > 100 µM
OVCAR-3 ovarian
  TGI: > 100 µM
MOLT-4 leukemia
  TGI: > 100 µM
UACC-62 melanoma
  TGI: > 100 µM
